{"source": "patent US9309276B2", "about": "“Synthetic lipid A derivative” (University of Georgia Research Foundation, Inc., priority 2007, dated 2016)", "key": {"Mono Mac 6 (MM6) cells": {"tested_on": "Mono Mac 6 (MM6) cells", "assay": "TNF-α induction in human monocytic Mono Mac 6 cells (ELISA)", "assay_type": "cell-based", "settings": "5.5 h at 37° C., increasing concentrations", "procedure": "MM6 cells were incubated for 5.5 h at 37° C. with increasing concentrations of E. coli LPS and synthetic compounds 103 and 104 as indicated. TNF-α protein in cell supernatants was measured using ELISA. (103 and 104 show background values and therefore overlap in the figure).\nWe have chemically synthesized the tetra-acylated lipid As 103 and 104 (FIG. 8) to study whether LPS derived from P. gingivalis can induce cellular activation in a TLR2- or TLR4-dependent manner. Furthermore, there are indications that LPS of P. gingivalis can antagonize cytokine production induced by enteric LPS and therefore these properties have also been studied. […]\nMono Mac 6 (MM6) cells, provided by Dr. H. W. L. Ziegler-Heitbrock (Institute for Inhalationbiology, Munich, Germany), were cultured in RPMI 1640 medium with L-glutamine (BioWhittaker) supplemented with penicillin (100 u mL^−1)/streptomycin (100 μg mL^−1; Mediatech, OPI supplement (1%; Sigma; containing oxaloacetate, pyruvate and bovine insulin) and fetal calf serum (FCS; 10%; HyClone). New batches of frozen cell stock were grown up every 2 months and growth morphology evaluated. Before each experiment, MM6 cells were incubated with calcitriol (10 ng mL^−1; Sigma) for 2 days to differentiate into macrophage like cells. […]"}, "mouse TLR2": {"biological_target": "T1, mouse TLR2 (Mus musculus, UniProt Q9QUN7)", "T1 construct": "host or cells: HEK 293T", "T1 sequence (Q9QUN7 25-784)": "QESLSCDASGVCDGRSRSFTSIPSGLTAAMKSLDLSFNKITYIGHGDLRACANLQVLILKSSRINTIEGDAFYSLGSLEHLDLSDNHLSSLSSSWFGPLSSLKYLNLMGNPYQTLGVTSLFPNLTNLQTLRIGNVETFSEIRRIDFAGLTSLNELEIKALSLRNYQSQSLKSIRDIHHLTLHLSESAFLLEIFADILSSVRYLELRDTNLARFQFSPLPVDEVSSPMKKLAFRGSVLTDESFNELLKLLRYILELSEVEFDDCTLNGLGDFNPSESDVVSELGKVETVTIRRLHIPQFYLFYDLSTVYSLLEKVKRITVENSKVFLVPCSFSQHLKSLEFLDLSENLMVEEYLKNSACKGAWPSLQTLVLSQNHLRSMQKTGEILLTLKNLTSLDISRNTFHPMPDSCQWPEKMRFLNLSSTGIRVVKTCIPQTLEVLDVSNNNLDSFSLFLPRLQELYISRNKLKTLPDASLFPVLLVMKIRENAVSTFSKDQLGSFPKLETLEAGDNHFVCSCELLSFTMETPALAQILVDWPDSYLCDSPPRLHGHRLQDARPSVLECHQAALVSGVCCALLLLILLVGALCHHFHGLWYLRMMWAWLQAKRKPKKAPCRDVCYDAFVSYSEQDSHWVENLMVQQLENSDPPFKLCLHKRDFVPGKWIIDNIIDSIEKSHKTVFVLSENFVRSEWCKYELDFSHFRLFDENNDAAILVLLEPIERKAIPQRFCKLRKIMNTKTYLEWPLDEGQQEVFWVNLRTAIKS", "assay": "NF-κB activation in HEK 293T cells stably transfected with mouse TLR2", "assay_type": "cell-based", "settings": "103/104 at 0.1, 1 and 10 μg mL−1; Pam3CysSK4 1 μg mL−1; 4 h", "procedure": "Induction of NF-κB activation was determined in triplicate cultures of HEK 293T cells stably transfected with human or mouse (a) TLR4/MD2/CD14 and (b) TLR2 and transiently transfected with pELAM-Luc and pRL-TK plasmids. Forty-four h post-transfection, cells were treated with (B) E. coli LPS (10 ng mL^−1), (C) Pam3CysSK4 (1 μg mL^−1), (D, E and F) 103 (0.1, 1 and 10 μg mL^−1, respectively), (G, H and I) 104 (0.1, 1 and 10 μg mL^−1, respectively) or (A) were left untreated (control). Forty-eight h post-transfection, NF-κB activation was determined by firefly luciferase activity relative to Renilla luciferase activity. n.a. indicates not analyzed.\nTo examine the ability of the synthetic compounds to induce activation of NF-κB, HEK 293T cells were employed that were stably transfected with various immune receptors and transiently transfected with a plasmid containing the reporter gene pELAM-Luc (NF-κB-dependent firefly luciferase reporter vector) and a plasmid containing the control gene pRL-TK (Renilla luciferase control reporter vector) (FIG. 11). […] Although compound 104 is a weak activator of mouse TLR4, it could not induce the secretion of cytokines.\nThe day before transfection, HEK 293T wild type cells and HEK 293T cells stably transfected with human and murine TLR4/MD2/CD14 and human and murine TLR2 were plated in 96-well tissue culture plates (16,000 cells/well). The next day, cells were transiently transfected using PolyFect Transfection Reagent (Qiagen) with expression plasmids pELAM-Luc (NF-κB-dependent firefly luciferase reporter plasmid, 50 ng/well) (Chow et al., J. Biol. Chem., 1999, 274, 10689-10692) and pRL-TK (Renilla luciferase control reporter vector, 1 ng/well; Promega) as an internal control to normalize experimental variations. […] The luciferase activity was measured using the Dual-Luciferase Reporter Assay System (Promega) according to the manufacturer's instructions and a combination luminometer/fluorometer microplate reader (BMG Labtech). […]"}}}
{"molecule": "CCCCCCCCCCCCCCCC(=O)O[C@H](CCCCCCCCCCCC(C)C)CC(=O)N[C@H]1[C@H](OC[C@H]2O[C@H](OP(=O)(O)O)[C@H](NC(=O)C[C@H](O)CCCCCCCCCCCC(C)C)[C@@H](OC(=O)C[C@H](O)CCCCCCCCCCCCC)[C@@H]2O)O[C@H](CO)[C@@H](O)[C@@H]1O", "note": "[Compound 103, 6-O-{2-Deoxy-2-[(R)-3-hexadecanoyloxy-15-methyl-hexadecanoylamino]-β-D-glucopyranosyl}-3-O—[(R)-3-hydroxy-hexadecanoyl]-2-deoxy-2-[(R)-3-hydroxy-15-methyl-hexadecanoylamino]-α-D-glucopyranose 1-phosphate]", "values": [{"measurement": "TNF-α induction (in words)", "setting": "Mono Mac 6 (MM6) cells", "result": "did not exhibit any activity"}, {"measurement": "NF-κB activation, mouse TLR2", "setting": "mouse TLR2", "result": "No activation of NF-κB"}]}
{"molecule": "CCCCCCCCCCCCCCCC(=O)O[C@H](CCCCCCCCCCCC(C)C)CC(=O)N[C@H]1[C@H](OC[C@H]2O[C@H](OP(=O)(O)O)[C@H](NC(=O)C[C@H](O)CCCCCCCCCCCC(C)C)[C@@H](O)[C@@H]2O)O[C@H](CO)[C@@H](O)[C@@H]1ONC(=O)C[C@H](O)CCCCCCCCCC(C)C", "note": "[Compound 104, 6-O-{2-Deoxy-2-[(R)-3-hexadecanoyloxy-15-methyl-hexadecanoylamino]-3-O—[(R)-3-hydroxy-13-methyl-tetradecanoylamino]-β-D-glucopyranosyl}-2-deoxy-2-[(R)-3-hydroxy-15-methyl-hexadecanoylamino]-α-D-glucopyranose 1-phosphate]", "values": [{"measurement": "TNF-α induction (in words)", "setting": "Mono Mac 6 (MM6) cells", "result": "did not exhibit any activity"}, {"measurement": "NF-κB activation, mouse TLR2", "setting": "mouse TLR2", "result": "No activation of NF-κB"}]}
